{"source": "patent US20040171622A1", "about": "“Cardioprotective delta opioid receptor agonists and methods of using same” (priority 2003, published 2004)", "key": {"[1]": {"biological_target": "T1, μ opioid receptor (Rattus norvegicus, UniProt P33535)", "T1 construct": "tissue Pel-Freeze Biological Inc. (Rogers, Ark.); host or cells: rat whole brain membranes", "T1 sequence (P33535 whole entry)": "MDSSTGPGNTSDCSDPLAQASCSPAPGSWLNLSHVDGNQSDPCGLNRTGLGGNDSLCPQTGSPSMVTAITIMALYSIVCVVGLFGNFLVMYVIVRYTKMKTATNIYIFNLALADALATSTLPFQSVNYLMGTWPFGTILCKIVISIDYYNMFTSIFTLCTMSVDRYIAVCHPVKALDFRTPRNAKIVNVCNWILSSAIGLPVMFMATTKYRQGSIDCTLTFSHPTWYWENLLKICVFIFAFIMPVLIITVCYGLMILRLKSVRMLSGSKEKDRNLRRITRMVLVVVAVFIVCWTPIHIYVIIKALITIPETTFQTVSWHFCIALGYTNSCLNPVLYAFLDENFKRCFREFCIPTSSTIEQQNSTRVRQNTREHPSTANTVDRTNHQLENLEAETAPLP", "assay": "Radioligand binding ([3H]DAMGO), rat brain membranes"}, "[2]": {"biological_target": "T2, δ opioid receptor (Rattus norvegicus, UniProt P33533)", "T2 construct": "tissue Pel-Freeze Biological Inc. (Rogers, Ark.); host or cells: rat whole brain membranes", "T2 sequence (P33533 whole entry)": "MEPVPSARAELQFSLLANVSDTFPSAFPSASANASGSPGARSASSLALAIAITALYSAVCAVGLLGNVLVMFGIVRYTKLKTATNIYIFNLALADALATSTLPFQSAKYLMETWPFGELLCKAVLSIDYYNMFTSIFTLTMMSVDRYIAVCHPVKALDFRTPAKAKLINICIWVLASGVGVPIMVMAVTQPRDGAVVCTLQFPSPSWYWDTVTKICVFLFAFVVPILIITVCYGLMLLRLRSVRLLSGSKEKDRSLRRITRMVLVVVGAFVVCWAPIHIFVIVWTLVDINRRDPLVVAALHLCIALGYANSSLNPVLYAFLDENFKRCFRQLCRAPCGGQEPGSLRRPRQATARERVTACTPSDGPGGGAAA", "assay": "Radioligand binding ([3H]Deltorphin II), rat brain membranes"}, "[3]": {"biological_target": "T3, κ opioid receptor (Cavia porcellus, UniProt P41144)", "T3 construct": "tissue Pel-Freeze Biological Inc. (Rogers, Ark.); host or cells: guinea pig cerebellum membranes", "T3 sequence (P41144 whole entry)": "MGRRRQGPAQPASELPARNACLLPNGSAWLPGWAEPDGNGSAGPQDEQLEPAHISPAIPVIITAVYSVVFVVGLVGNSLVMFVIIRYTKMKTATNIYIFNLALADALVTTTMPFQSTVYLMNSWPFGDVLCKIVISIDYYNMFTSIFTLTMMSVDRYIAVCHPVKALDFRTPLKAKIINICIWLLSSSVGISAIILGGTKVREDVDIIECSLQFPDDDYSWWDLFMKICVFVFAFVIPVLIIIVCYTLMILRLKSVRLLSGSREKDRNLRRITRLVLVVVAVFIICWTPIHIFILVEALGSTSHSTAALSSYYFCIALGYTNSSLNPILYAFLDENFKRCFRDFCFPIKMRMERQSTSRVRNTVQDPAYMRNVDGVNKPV", "assay": "Radioligand binding ([3H]U69593), guinea pig cerebellum membranes"}, "[4]": {"system": "rats", "assay": "Tail pinch test for analgesia", "assay_type": "in vivo, rat", "conditions": "intravenous", "method": "(§1) Analgesia was assayed in rats using the tail pinch test. Compound 1 was administered intravenously. Nociceptive response values were obtained for a 1-2 hour period. An artery clamp was placed on the tail (one inch from the tip of the tail) for a short duration until an escape response occurred (i.e. tail-flick or vocalization). The escape response latency was recorded by means of a stopwatch. A cutoff time of 20 sec. was used to prevent unnecessary tissue damage. […] The elapsed time to elicit a pain response was recorded as the tail pinch latency in seconds.\n(§2) Further, the compound acts predominately at peripheral delta opioid receptors."}, "[5]": {"system": "rats", "assay": "Observation of seizures in tail pinch test animals", "assay_type": "in vivo, rat", "conditions": "intravenous, up to 50 mg/kg", "method": "as §1, §2"}, "[6]": {"system": "hearts isolated from Sprague-Dawley rats", "assay": "tissue or blood", "parameters": "species or system rat", "conditions": "for % IS/AAR: about 15 min prior to occlusion; for inhibition at 0.0001 µM / inhibition at 0.001 µM / inhibition at 0.01 µM: Rattus norvegicus, after 35 min regional ischemia and 120 min reperfusion; for inhibition at 0.0001 µM: 0.1 nM; for inhibition at 0.001 µM: 1.0 nM"}, "[7]": {"system": "rats", "assay": "In vivo LAD coronary artery ligation (35 min) and reperfusion, infarct size, pretreatment 15 min prior", "parameters": "species or system rat", "conditions": "1 mg/kg i.v."}, "[8]": {"system": "rats", "assay": "In vivo coronary artery occlusion (30 min) and reperfusion, pre-ischemic administration", "parameters": "species or system rat"}, "[9]": {"system": "rats", "assay": "In vivo coronary artery occlusion and reperfusion, administration immediately prior to reperfusion", "parameters": "species or system rat", "conditions": "0.3 mg/kg, administered at time of reperfusion"}, "[10]": {"conditions": "0.03 mg/kg i.v. 5 min prior to occlusion"}, "[11]": {"conditions": "0.3 mg/kg i.v. 5 min prior to occlusion"}}, "note": "Read-outs that look alike come from different tables or passages of the source.", "data": [{"molecule": "CCN(CC)C(=O)c1ccc([C@H](c2cccc(O)c2)N2C[C@@H](C)N(Cc3ccc(C(=O)O)cc3)C[C@@H]2C)cc1", "note": "[Compound 1]", "values": [{"measurement": "Ki", "setting": "[1]", "result": 1520, "unit": "nM"}, {"measurement": "Ki", "setting": "[2]", "result": 1.89, "unit": "nM"}, {"measurement": "Ki", "setting": "[3]", "result": 17400, "unit": "nM"}, {"measurement": "ED50", "setting": "[4]; Rattus norvegicus, 20 sec cutoff", "result": "> 50", "unit": "mg/kg"}, {"measurement": "analgesic activity", "setting": "[4]", "result": "no analgesic activity"}, {"measurement": "Seizures", "setting": "[5]", "result": "NONE"}, {"measurement": "Seizures", "setting": "[5]; listed as compound (1)", "result": "no seizures were observed"}, {"measurement": "reduction of infarct size relative to control group", "setting": "[6]; 1 nM acute pretreatment, one group, FIG. 1", "result": 71, "unit": "%"}, {"measurement": "% IS/AAR", "setting": "[6]; 1 nM, isolated rat heart", "result": "18 ± 5", "unit": "%"}, {"measurement": "% IS/AAR", "setting": "[6]; 2 nM, isolated rat heart", "result": "9 ± 2", "unit": "%"}, {"measurement": "protection against damage present in control group (maximal protection)", "setting": "[6]; 2 nM, isolated rat heart", "result": "~90", "unit": "%"}, {"measurement": "% IS/AAR", "setting": "[6]; 10 nM, isolated rat heart", "result": "20 ± 6", "unit": "%"}, {"measurement": "inhibition at 0.0001 µM", "setting": "[6]; read-out: +dP/dt % inhibition", "result": 26, "unit": "%"}, {"measurement": "inhibition at 0.0001 µM", "setting": "[6]; read-out: CF % inhibition", "result": 43, "unit": "%"}, {"measurement": "inhibition at 0.0001 µM", "setting": "[6]; read-out: HRXDP % inhibition", "result": 32, "unit": "%"}, {"measurement": "inhibition at 0.0001 µM", "setting": "[6]; read-out: −dP/dt % inhibition", "result": 19, "unit": "%"}, {"measurement": "inhibition at 0.001 µM", "setting": "[6]; read-out: +dP/dt % inhibition", "result": 7, "unit": "%"}, {"measurement": "inhibition at 0.001 µM", "setting": "[6]; read-out: CF % inhibition", "result": 13, "unit": "%"}, {"measurement": "inhibition at 0.001 µM", "setting": "[6]; read-out: HRXDP % inhibition", "result": 17, "unit": "%"}, {"measurement": "inhibition at 0.001 µM", "setting": "[6]; read-out: −dP/dt % inhibition", "result": 10, "unit": "%"}, {"measurement": "inhibition at 0.01 µM", "setting": "[6]; 10 nM, read-out: +dP/dt % inhibition", "result": 21, "unit": "%"}, {"measurement": "inhibition at 0.01 µM", "setting": "[6]; 10 nM, read-out: CF % inhibition", "result": 38, "unit": "%"}, {"measurement": "inhibition at 0.01 µM", "setting": "[6]; 10 nM, read-out: HRXDP % inhibition", "result": 32, "unit": "%"}, {"measurement": "inhibition at 0.01 µM", "setting": "[6]; 10 nM, read-out: −dP/dt % inhibition", "result": 18, "unit": "%"}, {"measurement": "heart tissue functioning, % of normal (on the average)", "setting": "[6]; pretreated hearts, some parameters up to 90%", "result": "at least 75%"}, {"measurement": "Reduction of Infarct Size Relative to Non treated Control", "setting": "[7]; measurement 156 hours after administration (approximately 7 days)", "result": 43, "unit": "%"}, {"measurement": "Reduction of Infarct Size Relative to Non treated Control", "setting": "[7]; measurement after acute administration", "result": 48, "unit": "%"}, {"measurement": "Study 1 (% IS/AAR)", "setting": "[8]; 0.01 mg/kg i.v. 5 min prior to occlusion", "result": "56 ± 5", "unit": "%"}, {"measurement": "Study 1 (% IS/AAR)", "setting": "[8]; [10]", "result": "44 ± 10", "unit": "%"}, {"measurement": "Study 2 (% IS/AAR)", "setting": "[8]; [10]", "result": "40 ± 3", "unit": "%"}, {"measurement": "Study 2 (% IS/AAR)", "setting": "[8]; 0.1 mg/kg i.v. 5 min prior to occlusion", "result": "39 ± 3", "unit": "%"}, {"measurement": "Study 1 (% IS/AAR)", "setting": "[8]; [11]", "result": "35 ± 11", "unit": "%"}, {"measurement": "Study 2 (% IS/AAR)", "setting": "[8]; [11]", "result": "38 ± 3", "unit": "%"}, {"measurement": "Study 1 (% IS/AAR)", "setting": "[8]; 1.0 mg/kg i.v. 5 min prior to occlusion", "result": "40 ± 8", "unit": "%"}, {"measurement": "protection against control ischemic damage", "setting": "[9]", "result": "30-40%"}]}]}
